According to ChEMBL document CHEMBL3991601, “The target landscape of clinical kinase drugs” (Science, 2017):
Active and inactive are the calls of the source.

How the values were obtained:
[1] = molecular target: Dual specificity protein kinase CLK3 (Homo sapiens, UniProt P49761); format: subcellular, K-562, COLO 205, SK-N-BE(2) and MV-4-11, Cell lysate; settings: read-out: Kd apparent
[2] = molecular target: Cell division cycle 7-related protein kinase (Homo sapiens, UniProt O00311)
[3] = molecular target: Cyclin-dependent kinase 17 (Homo sapiens, UniProt Q00537)
[4] = molecular target: Dual specificity protein kinase CLK2 (Homo sapiens, UniProt P49760)
[5] = molecular target: T1, ATP-dependent RNA helicase DHX30 (Homo sapiens, UniProt Q7L2E3)
T1 sequence (Q7L2E3 whole entry): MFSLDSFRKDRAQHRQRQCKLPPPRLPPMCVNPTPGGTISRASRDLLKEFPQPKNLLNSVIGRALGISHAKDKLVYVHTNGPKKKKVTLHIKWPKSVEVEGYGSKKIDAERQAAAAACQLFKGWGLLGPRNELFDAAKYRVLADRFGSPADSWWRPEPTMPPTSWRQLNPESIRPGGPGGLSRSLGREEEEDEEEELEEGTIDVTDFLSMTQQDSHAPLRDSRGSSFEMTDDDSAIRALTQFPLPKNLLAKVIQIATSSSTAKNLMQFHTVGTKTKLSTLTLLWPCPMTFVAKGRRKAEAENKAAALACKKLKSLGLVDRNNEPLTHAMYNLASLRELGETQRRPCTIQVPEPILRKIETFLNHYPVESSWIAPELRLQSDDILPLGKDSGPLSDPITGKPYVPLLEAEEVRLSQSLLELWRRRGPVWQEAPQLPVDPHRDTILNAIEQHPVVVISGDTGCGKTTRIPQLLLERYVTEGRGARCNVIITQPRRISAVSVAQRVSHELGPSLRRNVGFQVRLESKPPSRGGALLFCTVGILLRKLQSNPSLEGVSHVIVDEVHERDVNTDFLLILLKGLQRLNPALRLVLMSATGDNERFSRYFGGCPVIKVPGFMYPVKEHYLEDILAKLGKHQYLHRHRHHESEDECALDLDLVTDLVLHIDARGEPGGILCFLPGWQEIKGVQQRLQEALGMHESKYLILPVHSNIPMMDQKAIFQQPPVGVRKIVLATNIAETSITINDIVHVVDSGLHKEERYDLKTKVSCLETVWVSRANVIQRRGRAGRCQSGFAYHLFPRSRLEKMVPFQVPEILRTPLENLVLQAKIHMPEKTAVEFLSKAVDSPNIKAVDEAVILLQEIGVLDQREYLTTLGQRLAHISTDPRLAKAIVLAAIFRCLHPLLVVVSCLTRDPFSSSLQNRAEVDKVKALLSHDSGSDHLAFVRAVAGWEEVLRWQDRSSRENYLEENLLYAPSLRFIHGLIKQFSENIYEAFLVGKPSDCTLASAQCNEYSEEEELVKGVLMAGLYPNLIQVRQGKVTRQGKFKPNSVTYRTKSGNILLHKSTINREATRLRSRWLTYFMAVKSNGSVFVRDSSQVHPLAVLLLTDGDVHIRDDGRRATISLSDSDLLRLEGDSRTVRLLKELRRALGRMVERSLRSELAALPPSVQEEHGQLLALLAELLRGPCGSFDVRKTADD

[6] = molecular target: T2, Ephrin type-A receptor 1 (Homo sapiens, UniProt P21709)
T2 sequence (P21709 whole entry): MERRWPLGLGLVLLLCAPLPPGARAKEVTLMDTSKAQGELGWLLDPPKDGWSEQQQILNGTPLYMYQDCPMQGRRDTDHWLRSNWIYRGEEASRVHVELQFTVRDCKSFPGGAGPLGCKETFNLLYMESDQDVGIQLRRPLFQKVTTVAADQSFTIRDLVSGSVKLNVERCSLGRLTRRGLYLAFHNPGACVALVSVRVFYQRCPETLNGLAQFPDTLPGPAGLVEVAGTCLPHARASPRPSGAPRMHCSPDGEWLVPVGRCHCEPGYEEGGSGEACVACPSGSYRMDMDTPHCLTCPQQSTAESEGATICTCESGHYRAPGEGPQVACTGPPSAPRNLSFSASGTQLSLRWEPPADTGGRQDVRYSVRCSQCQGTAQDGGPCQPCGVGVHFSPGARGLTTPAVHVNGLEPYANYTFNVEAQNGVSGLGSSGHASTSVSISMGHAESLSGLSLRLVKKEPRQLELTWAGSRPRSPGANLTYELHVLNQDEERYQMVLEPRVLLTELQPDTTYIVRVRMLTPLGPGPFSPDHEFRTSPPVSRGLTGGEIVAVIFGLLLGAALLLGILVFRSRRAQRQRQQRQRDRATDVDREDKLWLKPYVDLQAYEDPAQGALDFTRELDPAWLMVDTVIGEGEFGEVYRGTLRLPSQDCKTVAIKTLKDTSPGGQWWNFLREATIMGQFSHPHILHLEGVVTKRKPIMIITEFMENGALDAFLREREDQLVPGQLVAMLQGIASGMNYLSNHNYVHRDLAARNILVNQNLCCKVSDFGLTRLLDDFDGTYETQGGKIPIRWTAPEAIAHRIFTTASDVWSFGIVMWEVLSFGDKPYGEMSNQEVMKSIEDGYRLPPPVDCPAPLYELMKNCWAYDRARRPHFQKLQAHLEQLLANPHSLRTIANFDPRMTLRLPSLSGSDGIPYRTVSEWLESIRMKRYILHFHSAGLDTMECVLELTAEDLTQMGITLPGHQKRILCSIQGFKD

[7] = molecular target: G protein-coupled receptor kinase 6 (Homo sapiens, UniProt P43250)
[8] = molecular target: Misshapen-like kinase 1 (Homo sapiens, UniProt Q8N4C8)
[9] = molecular target: Serine/threonine-protein kinase Nek7 (Homo sapiens, UniProt Q8TDX7)
[10] = molecular target: Obg-like ATPase 1 (Homo sapiens, UniProt Q9NTK5)
[11] = molecular target: Serine/threonine-protein kinase PAK 6 (Homo sapiens, UniProt Q9NQU5)
[12] = molecular target: Phosphatidylethanolamine-binding protein 1 (Homo sapiens, UniProt P30086)
[13] = molecular target: Serine/threonine-protein kinase pim-2 (Homo sapiens, UniProt Q9P1W9)
[14] = molecular target: Serine/threonine-protein kinase 24 (Homo sapiens, UniProt Q9Y6E0)
[15] = molecular target: Myosin-10 (Homo sapiens, UniProt P35580)
[16] = molecular target: Choline-phosphate cytidylyltransferase A (Homo sapiens, UniProt P49585)
Also: in the data inactive means no Kd found up to 30 µM.

Chain of Dual specificity protein kinase CLK2 (P49760 whole entry): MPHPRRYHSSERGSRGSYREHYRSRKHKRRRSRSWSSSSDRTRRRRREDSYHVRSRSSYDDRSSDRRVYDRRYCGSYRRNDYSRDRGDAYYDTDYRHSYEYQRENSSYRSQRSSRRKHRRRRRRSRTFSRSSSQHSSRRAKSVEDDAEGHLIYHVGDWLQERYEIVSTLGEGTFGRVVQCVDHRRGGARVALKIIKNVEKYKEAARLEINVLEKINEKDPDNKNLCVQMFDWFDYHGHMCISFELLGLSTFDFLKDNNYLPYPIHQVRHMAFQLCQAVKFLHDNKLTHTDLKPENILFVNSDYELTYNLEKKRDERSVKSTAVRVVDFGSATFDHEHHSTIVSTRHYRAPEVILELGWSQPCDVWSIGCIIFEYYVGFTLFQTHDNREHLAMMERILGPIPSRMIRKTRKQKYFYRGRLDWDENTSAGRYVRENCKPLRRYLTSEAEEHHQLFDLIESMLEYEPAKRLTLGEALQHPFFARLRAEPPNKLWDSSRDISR
Chain of Serine/threonine-protein kinase Nek7 (Q8TDX7 whole entry): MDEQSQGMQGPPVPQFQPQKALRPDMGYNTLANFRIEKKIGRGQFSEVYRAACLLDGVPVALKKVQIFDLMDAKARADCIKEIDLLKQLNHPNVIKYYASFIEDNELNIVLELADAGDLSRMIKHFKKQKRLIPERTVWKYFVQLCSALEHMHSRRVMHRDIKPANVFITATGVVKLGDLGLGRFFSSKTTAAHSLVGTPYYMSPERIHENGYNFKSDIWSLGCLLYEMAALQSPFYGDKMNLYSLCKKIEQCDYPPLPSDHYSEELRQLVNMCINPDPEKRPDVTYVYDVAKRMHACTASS
Chain of Serine/threonine-protein kinase PAK 6 (Q9NQU5 whole entry): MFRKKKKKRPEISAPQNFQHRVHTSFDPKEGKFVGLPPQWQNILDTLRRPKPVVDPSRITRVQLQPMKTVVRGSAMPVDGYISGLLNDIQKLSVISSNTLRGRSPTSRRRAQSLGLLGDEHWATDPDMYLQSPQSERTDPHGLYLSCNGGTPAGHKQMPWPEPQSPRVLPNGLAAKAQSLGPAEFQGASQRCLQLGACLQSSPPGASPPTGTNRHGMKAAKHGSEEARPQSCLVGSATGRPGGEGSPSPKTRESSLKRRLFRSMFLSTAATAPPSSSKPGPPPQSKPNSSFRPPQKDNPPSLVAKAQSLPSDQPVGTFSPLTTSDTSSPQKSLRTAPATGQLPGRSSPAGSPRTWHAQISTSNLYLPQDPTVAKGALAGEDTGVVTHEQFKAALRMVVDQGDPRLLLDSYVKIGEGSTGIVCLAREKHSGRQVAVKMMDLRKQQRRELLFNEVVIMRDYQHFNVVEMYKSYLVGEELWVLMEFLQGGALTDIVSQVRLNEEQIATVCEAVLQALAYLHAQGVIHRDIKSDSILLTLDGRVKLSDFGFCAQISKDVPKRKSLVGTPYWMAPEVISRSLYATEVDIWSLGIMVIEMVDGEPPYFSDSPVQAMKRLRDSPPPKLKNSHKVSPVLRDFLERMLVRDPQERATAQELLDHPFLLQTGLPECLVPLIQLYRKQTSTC
Chain of Cell division cycle 7-related protein kinase (O00311 whole entry): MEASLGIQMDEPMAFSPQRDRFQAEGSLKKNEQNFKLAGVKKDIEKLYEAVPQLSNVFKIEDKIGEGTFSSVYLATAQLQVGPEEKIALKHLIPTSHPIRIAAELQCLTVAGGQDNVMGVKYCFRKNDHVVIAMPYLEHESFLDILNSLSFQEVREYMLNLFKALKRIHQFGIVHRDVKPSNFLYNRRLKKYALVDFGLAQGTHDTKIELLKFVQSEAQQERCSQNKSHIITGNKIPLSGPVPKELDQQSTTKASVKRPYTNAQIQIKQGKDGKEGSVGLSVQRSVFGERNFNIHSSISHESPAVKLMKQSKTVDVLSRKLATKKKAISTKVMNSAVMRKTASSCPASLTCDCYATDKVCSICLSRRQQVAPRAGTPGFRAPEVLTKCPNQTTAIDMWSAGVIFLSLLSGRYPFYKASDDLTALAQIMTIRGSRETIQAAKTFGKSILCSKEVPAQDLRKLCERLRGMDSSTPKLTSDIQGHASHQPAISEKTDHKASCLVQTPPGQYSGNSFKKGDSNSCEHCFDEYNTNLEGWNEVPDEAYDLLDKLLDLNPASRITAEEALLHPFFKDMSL
Chain of Phosphatidylethanolamine-binding protein 1 (P30086 whole entry): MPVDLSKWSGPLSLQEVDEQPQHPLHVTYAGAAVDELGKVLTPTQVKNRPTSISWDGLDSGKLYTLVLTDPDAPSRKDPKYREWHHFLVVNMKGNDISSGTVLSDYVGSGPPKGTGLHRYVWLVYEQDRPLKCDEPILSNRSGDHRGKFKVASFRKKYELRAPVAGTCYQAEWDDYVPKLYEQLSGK
Chain of Obg-like ATPase 1 (Q9NTK5 whole entry, looked up): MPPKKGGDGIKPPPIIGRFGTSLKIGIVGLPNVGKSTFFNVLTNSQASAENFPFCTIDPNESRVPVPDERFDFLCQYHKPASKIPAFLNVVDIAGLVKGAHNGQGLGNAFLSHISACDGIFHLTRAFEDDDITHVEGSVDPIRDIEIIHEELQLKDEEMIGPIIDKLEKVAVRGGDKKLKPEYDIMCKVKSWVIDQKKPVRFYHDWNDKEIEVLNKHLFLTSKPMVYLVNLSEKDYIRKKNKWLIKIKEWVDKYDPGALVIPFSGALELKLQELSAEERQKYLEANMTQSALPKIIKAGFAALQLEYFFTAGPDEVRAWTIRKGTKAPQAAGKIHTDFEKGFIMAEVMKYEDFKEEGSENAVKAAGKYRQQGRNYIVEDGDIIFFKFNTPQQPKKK
Chain of Choline-phosphate cytidylyltransferase A (P49585 whole entry): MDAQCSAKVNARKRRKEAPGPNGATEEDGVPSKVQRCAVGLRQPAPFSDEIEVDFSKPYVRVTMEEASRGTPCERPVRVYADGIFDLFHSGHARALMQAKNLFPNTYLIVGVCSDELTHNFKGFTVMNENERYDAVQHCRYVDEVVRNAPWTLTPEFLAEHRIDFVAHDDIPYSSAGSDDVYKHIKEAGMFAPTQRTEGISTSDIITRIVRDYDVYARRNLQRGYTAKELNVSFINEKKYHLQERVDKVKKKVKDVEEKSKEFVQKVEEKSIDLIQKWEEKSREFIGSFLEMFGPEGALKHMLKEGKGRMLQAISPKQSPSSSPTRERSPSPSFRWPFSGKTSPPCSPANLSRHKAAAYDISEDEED
Chain of Serine/threonine-protein kinase pim-2 (Q9P1W9 whole entry): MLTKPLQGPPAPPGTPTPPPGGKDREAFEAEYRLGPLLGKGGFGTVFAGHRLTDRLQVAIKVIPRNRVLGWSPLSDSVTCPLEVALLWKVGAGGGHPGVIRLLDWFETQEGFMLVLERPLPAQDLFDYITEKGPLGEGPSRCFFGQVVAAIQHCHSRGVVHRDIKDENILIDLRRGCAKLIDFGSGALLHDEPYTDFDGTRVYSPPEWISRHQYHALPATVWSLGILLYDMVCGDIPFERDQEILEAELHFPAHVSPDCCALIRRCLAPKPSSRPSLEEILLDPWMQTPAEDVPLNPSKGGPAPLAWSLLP
Chain of Dual specificity protein kinase CLK3 (P49761 whole entry): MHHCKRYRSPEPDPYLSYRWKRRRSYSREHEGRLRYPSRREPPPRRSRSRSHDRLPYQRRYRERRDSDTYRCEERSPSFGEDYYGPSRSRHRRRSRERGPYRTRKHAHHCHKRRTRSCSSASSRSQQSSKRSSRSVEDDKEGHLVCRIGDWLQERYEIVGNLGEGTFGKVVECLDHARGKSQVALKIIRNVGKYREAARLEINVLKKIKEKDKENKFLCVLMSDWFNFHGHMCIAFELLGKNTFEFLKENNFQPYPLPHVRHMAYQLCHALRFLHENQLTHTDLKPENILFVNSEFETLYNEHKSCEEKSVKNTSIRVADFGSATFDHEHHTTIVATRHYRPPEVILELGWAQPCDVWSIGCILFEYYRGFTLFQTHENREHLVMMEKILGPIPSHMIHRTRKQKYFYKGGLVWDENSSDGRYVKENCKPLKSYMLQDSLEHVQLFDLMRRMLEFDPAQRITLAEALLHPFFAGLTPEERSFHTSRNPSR
Chain of G protein-coupled receptor kinase 6 (P43250 whole entry): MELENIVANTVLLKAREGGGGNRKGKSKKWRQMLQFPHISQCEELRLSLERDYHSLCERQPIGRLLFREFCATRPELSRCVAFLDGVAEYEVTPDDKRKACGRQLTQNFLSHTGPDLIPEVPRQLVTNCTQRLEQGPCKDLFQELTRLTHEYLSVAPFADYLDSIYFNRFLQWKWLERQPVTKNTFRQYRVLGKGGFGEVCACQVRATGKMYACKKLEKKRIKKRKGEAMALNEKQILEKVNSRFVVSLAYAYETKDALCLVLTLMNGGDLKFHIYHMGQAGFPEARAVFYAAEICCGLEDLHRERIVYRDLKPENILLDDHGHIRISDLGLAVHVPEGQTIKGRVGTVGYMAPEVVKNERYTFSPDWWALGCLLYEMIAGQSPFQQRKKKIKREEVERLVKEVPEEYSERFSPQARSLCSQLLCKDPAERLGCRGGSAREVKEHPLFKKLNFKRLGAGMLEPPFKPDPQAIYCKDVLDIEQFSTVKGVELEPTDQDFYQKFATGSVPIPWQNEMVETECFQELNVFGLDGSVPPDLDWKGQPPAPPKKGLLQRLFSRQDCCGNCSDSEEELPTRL
Chain of Serine/threonine-protein kinase 24 (Q9Y6E0 whole entry): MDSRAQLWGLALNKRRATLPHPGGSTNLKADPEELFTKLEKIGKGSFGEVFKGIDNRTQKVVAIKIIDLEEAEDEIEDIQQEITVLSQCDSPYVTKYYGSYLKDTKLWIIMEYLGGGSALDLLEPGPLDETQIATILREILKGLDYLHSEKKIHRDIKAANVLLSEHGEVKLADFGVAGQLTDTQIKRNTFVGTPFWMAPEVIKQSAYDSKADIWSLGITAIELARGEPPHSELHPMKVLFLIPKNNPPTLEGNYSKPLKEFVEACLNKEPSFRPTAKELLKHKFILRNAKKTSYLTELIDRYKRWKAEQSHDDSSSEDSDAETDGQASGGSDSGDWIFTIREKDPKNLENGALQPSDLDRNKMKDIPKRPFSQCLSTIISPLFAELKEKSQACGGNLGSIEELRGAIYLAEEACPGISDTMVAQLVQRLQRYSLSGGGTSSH

| SMILES | Kd [1] | Kd [2] | Kd [3] | Kd [4] | Kd [5] | Kd [6] | Kd [7] | Kd [8] | Kd [9] | Kd [10] | Kd [11] | Kd [12] | Kd [13] | Kd [14] | Kd [15] | Kd [16] |
| --- | --- | --- | --- | --- | --- | --- | --- | --- | --- | --- | --- | --- | --- | --- | --- | --- |
| CN1CC[C@@H](c2c(O)cc(O)c3c(=O)cc(-c4ccccc4Cl)oc23)[C@@H]1CO | > 30 µM (inactive) | > 30 µM (inactive) | > 30 µM (inactive) | > 30 µM (inactive) | > 30 µM (inactive) | > 30 µM (inactive) | > 30 µM (inactive) | > 30 µM (inactive) | > 30 µM (inactive) | > 30 µM (inactive) | > 30 µM (inactive) | > 30 µM (inactive) | > 30 µM (inactive) | > 30 µM (inactive) |  |  |
| Cc1c(F)cc(C(=O)NC2CC2)cc1-c1ccc(C(=O)NCC(C)(C)C)cn1 [LOSMAPIMOD] | > 30 µM (inactive) |  | > 30 µM (inactive) | > 30 µM (inactive) | > 30 µM (inactive) | > 30 µM (inactive) | > 30 µM (inactive) | > 30 µM (inactive) |  | > 30 µM (inactive) |  |  | > 30 µM (inactive) | 0.011 µM |  |  |
| CNC(=O)CN1CCC(Oc2cc3c(Nc4cccc(Cl)c4F)ncnc3cc2OC)CC1 [SAPITINIB] | > 30 µM (inactive) | > 30 µM (inactive) | > 30 µM (inactive) |  |  | 0.015 µM | > 30 µM (inactive) | > 30 µM (inactive) |  |  | > 30 µM (inactive) |  | > 30 µM (inactive) | > 30 µM (inactive) |  | > 30 µM (inactive) |
| CC(=O)Nc1cccc(-n2c(=O)n(C3CC3)c(=O)c3c(Nc4ccc(I)cc4F)n(C)c(=O)c(C)c32)c1 [TRAMETINIB] | > 30 µM (inactive) | > 30 µM (inactive) | > 30 µM (inactive) | > 30 µM (inactive) | > 30 µM (inactive) | > 30 µM (inactive) | > 30 µM (inactive) | > 30 µM (inactive) |  | > 30 µM (inactive) | > 30 µM (inactive) | > 30 µM (inactive) | > 30 µM (inactive) | > 30 µM (inactive) | > 30 µM (inactive) | > 30 µM (inactive) |

Next, values leading:

| Kd [1] | Kd [2] | Kd [3] | Kd [4] | Kd [5] | Kd [6] | Kd [7] | Kd [8] | Kd [9] | Kd [10] | Kd [11] | Kd [12] | Kd [13] | Kd [14] | Kd [15] | Kd [16] | SMILES |
| --- | --- | --- | --- | --- | --- | --- | --- | --- | --- | --- | --- | --- | --- | --- | --- | --- |
| > 30 µM (inactive) | > 30 µM (inactive) | > 30 µM (inactive) | > 30 µM (inactive) | > 30 µM (inactive) |  |  | > 30 µM (inactive) | > 30 µM (inactive) | > 30 µM (inactive) | > 30 µM (inactive) |  | > 30 µM (inactive) | > 30 µM (inactive) | > 30 µM (inactive) | > 30 µM (inactive) | O=C(O)[C@]1(Cc2cccc(Nc3nccs3)n2)CC[C@@H](Oc2cccc(Cl)c2F)CC1 [MK-5108] |
| > 30 µM (inactive) | > 30 µM (inactive) | > 30 µM (inactive) |  | > 30 µM (inactive) | > 30 µM (inactive) |  | > 30 µM (inactive) | > 30 µM (inactive) | > 30 µM (inactive) | > 30 µM (inactive) | > 30 µM (inactive) | > 30 µM (inactive) | > 30 µM (inactive) | > 30 µM (inactive) | > 30 µM (inactive) | OCCn1cc(-c2cnc3nnn(Cc4ccc5ncccc5c4)c3n2)cn1 [PF-04217903] |
